Measured values reported in patent US5157052A, “Method for inhibiting IgE production” (priority 1990, dated 1992).

Tests used:
IgG3 = assay: Serum IgG3 in anti-IgD stimulated mice (two site sandwich ELISA, Assay D); type: in vivo, mouse (Balb/c female)
IgG2a = assay: Serum IgG2a in anti-IgD stimulated mice (two site sandwich ELISA, Assay C); type: in vivo, mouse (Balb/c female); settings: for IgG2a ±: Table 12, day 8 (control 849)
Protocol: Sera from mice treated with compounds in accordance with the method of the invention are analyzed for levels of IgG1, IgG2a, IgG3, and IgM.
Measurement of mouse IgG2a by a two site sandwich ELISA is performed in substantial accordance with the teaching of Assay B except with the following changes. NuncImmulon II plates are used in this assay. The IgG2a standard is purchased from Southern Biotech. The standard curve is linear between 4-250 ng/ml. Serum containing IgG2a is diluted 1/6400 to 1/1,000,000. About a 1/6,000 dilution of goat anti mouse IgG2a (Southern Biotech) conjugated to alkaline phosphatase is used.
Sera from the mice described in Example 13 are analyzed for the levels of IgG1, IgG2a, and IgG3 by Assays B, C, and D, respectively.
Two groups of 4 Balb/c female mice per group are injected with both 100 μg FF1-4D5 antibody and 100 μg H∂A1 antibody. One of these groups is a stimulated control designated Group B. On day 3 and 4, the other group is injected with 40 μg (±) methyl 11α, 16-dihydroxy-1-methyl-9-oxoprosta-4Z,13E-dien-1-oate. Another group is injected with only PBS as an unstimulated control (Group A). On day -1 and 8, 50-100 μl of serum is recovered and analyzed for IgE, IgG1 and IgG2a by Assays A, B, and C, respectively.
3 groups of 4 Balb/c female mice per group are injected with both 100 μg FF1-4D5 antibody and 100 μg H∂A1 antibody on day 0. Group A is given no further treatment. On day 3 and 4, one group of mice is injected with 20 μg (±) methyl 2-[2-[3R-3α-hydroxy-2β-(4-hydroxy-4-methyl-1E-octenyl-5-oxo-1α-cyclopentyl]-methyl]cyclopropanebutanoate (Group B) and another group with 20 μg (±) methyl 2-[2-[3R-3α-hydroxy-2β-(4-hydroxy-4-methyl-1E-octenyl)-5-oxo-1α-cyclopentyl]ethyl]cyclopropanepropanoate (Group C) as in Example 13. On day -1 and 8, 50-100 μl of serum is recovered and analyzed for IgE, IgG1, IgG2a and IgG3 by Assays A, B, C and D, respectively. The selectivity of inhibition of IgE is shown in Table 12.
Three groups of 5 Balb/c female mice per group are injected with both 100 μg FF1-4D5 antibody and 100 μg H∂A1 antibody on day 0. Group A is a control with no further treatment. On day 3 and 4, the mice are injected with 20 μg (±) methyl 11α,16-dihydroxy-4,4,16-trimethyl-9-oxoprosta-13E-en-1-oate (Group B) or 20 μg (±) methyl 11α,16-dihydroxy-16-methyl-9-oxoprosta-3,5Z,13E-trien-1-oate (Group C) as in Example 13. On day -1 and 8, […] of serum is recovered and analyzed for IgE, IgG1, IgG2a, IgG3 and IgM by Assays A, B, C, D and E, respectively.

[1] = Diarrheal effects in rats; settings: rat, in vivo, po
Protocol: Briefly, adult Charles River male rats weighing 210-230 g were individually housed and fasted with water available ad libitum for 24 hours prior to the test. The animals (N=6-12) received logarithmically graded prostaglandin doses orally. Immediately after administration, the animals were returned to their cages, and diarrhea, if any, was assessed on an all or none basis for 8 hours after drug treatment. The ED50 and relative potency values were calculated by the logistic method of Berkson.

IgE = assay: ED50 for inhibition of IgE calculated from the examples; type: in vivo, mouse; settings: dose to achieve 50% inhibition of IgE
Protocol: From the data in the above examples, the effective dose of each prostaglandin to achieve 50% inhibition of IgE (ED50) was calculated.

[2] = Table 14, 20 μg days 3 and 4, day 8 (control 1538)
[3] = Table 14, 20 μg days 3 and 4, day 8 (control 1246)
[4] = 2 μg IP days 3 and 4, day -1 baseline before treatment
[5] = 5 μg IP days 3 and 4, day -1 baseline before treatment
[6] = 10 μg IP days 3 and 4, day -1 baseline before treatment
[7] = 20 μg IP days 3 and 4, day -1 baseline before treatment
[8] = 40 μg IP days 3 and 4, day -1 baseline before treatment
[9] = Table 12, 20 μg days 3 and 4, day 8 (control 584)

In the case of CCCCC(C)(O)C/C=C/[C@H]1[C@H](O)CC(=O)[C@@H]1CCCC(C)(C)CCC(=O)OC (mixture of isomers) [(±) methyl 11α,16-dihydroxy-4,4,16-trimethyl-9-oxoprost-13E-en-1-oate], the “inhibition of IgG3” value (IgG3; 20 μg days 3 and 4, Example 25) is reported as “not IgG1, IgG2a, IgG3 and IgM”, the “IgG3 ± SD” value (IgG3; [2]) is reported as 2103 ± 616 µg/mL and the “inhibition of IgG2a” value (IgG2a; 20 μg days 3 and 4, Example 25) is reported as “not IgG1, IgG2a, IgG3 and IgM”. The “IgG2a ± SD” value (IgG2a; [3]) was 1019 ± 278 µg/mL, the TD50 at 8 h [1] was 0.185 mg/kg and the “ED50 IgE Inhibition” value (IgE) was 1.5 μg/mouse/TID.
For CCCCC(C)(O)C/C=C/[C@H]1[C@H](O)CC(=O)[C@@H]1C/C=C\CCCC(=O)OC (mixture of isomers) [(±) methyl 11α,16-dihydroxy-16-methyl-9-oxoprosta-5Z,13E-dien-1-oate], the “IgG3 ± SD” value (IgG3; 2 μg IP days 3 and 4, day 7 (control 227)) was 370 ± 229 µg/mL, the “IgG3 ± SD” value (IgG3; 2 μg IP days 3 and 4, day 8 (control 519)) was 882 ± 310 µg/mL and the “IgG3 ± SD” value (IgG3; 2 μg IP days 3 and 4, day 9 (control 510)) was 741 ± 475 µg/mL. For the same compound, the “IgG3 ± SD” value (IgG3; 2 μg IP days 3 and 4, day 11 (control 465)) was 687 ± 152 µg/mL, the “IgG3 ± SD” value (IgG3; [4]) was 70 ± 10 µg/mL and the “IgG3 ± SD” value (IgG3; 5 μg IP days 3 and 4, day 7) was 464 ± 161 µg/mL. For the same compound, the “IgG3 ± SD” value (IgG3; 5 μg IP days 3 and 4, day 8) was 640 ± 46 µg/mL, the “IgG3 ± SD” value (IgG3; 5 μg IP days 3 and 4, day 9) was 649 ± 232 µg/mL and the “IgG3 ± SD” value (IgG3; 5 μg IP days 3 and 4, day 11) was 559 ± 162 µg/mL. The “IgG3 ± SD” value (IgG3; [5]) was 109 ± 44 µg/mL, the “IgG3 ± SD” value (IgG3; 10 μg IP days 3 and 4, day 7) was 494 ± 267 µg/mL and the “IgG3 ± SD” value (IgG3; 10 μg IP days 3 and 4, day 8) was 789 ± 264 µg/mL. For the same compound, the “IgG3 ± SD” value (IgG3; 10 μg IP days 3 and 4, day 9) was 760 ± 340 µg/mL, the “IgG3 ± SD” value (IgG3; 10 μg IP days 3 and 4, day 11) was 802 ± 216 µg/mL and the “IgG3 ± SD” value (IgG3; [6]) was 68 ± 2 µg/mL. The “IgG3 ± SD” value (IgG3; 20 μg IP days 3 and 4, day 7) was 446 ± 266 µg/mL, the “IgG3 ± SD” value (IgG3; 20 μg IP days 3 and 4, day 8) was 1075 ± 453 µg/mL and the “IgG3 ± SD” value (IgG3; 20 μg IP days 3 and 4, day 9) was 1636 ± 275 µg/mL. The “IgG3 ± SD” value (IgG3; 20 μg IP days 3 and 4, day 11) was 1288 ± 156 µg/mL, the “IgG3 ± SD” value (IgG3; [7]) was 77 ± 10 µg/mL and the “IgG3 ± SD” value (IgG3; 40 μg IP days 3 and 4, day 7) was 236 ± 84 µg/mL. The “IgG3 ± SD” value (IgG3; 40 μg IP days 3 and 4, day 8) was 639 ± 104 µg/mL, the “IgG3 ± SD” value (IgG3; 40 μg IP days 3 and 4, day 9) was 1048 ± 167 µg/mL and the “IgG3 ± SD” value (IgG3; 40 μg IP days 3 and 4, day 11) was 1044 ± 115 µg/mL. For the same compound, the “IgG3 ± SD” value (IgG3; [8]) was 68 ± 6.5 µg/mL, the “IgG2a ± SD” value (IgG2a; 2 μg IP days 3 and 4, day 7 (control 139)) was 114 ± 61 µg/mL and the “IgG2a ± SD” value (IgG2a; 2 μg IP days 3 and 4, day 8 (control 554)) was 277 ± 111 µg/mL. The “IgG2a ± SD” value (IgG2a; 2 μg IP days 3 and 4, day 9 (control 923)) was 1053 ± 256 µg/mL, the “IgG2a ± SD” value (IgG2a; 2 μg IP days 3 and 4, day 11 (control 951)) was 1124 ± 219 µg/mL and the “IgG2a ± SD” value (IgG2a; [4]) was 25 ± 25 µg/mL. For the same compound, the “IgG2a ± SD” value (IgG2a; 5 μg IP days 3 and 4, day 7) was 133 ± 67 µg/mL, the “IgG2a ± SD” value (IgG2a; 5 μg IP days 3 and 4, day 8) was 481 ± 192 µg/mL and the “IgG2a ± SD” value (IgG2a; 5 μg IP days 3 and 4, day 9) was 1093 ± 245 µg/mL. The “IgG2a ± SD” value (IgG2a; 5 μg IP days 3 and 4, day 11) was 1540 ± 201 µg/mL, the “IgG2a ± SD” value (IgG2a; [5]) was 58 ± 66 µg/mL and the “IgG2a ± SD” value (IgG2a; 10 μg IP days 3 and 4, day 7) was 107 ± 45 µg/mL. For the same compound, the “IgG2a ± SD” value (IgG2a; 10 μg IP days 3 and 4, day 8) was 276 ± 168 µg/mL, the “IgG2a ± SD” value (IgG2a; 10 μg IP days 3 and 4, day 9) was 855 ± 117 µg/mL and the “IgG2a ± SD” value (IgG2a; 10 μg IP days 3 and 4, day 11) was 1097 ± 289 µg/mL. For the same compound, the “IgG2a ± SD” value (IgG2a; [6]) was 26 ± 7 µg/mL, the “IgG2a ± SD” value (IgG2a; 20 μg IP days 3 and 4, day 7) was 182 ± 105 µg/mL and the “IgG2a ± SD” value (IgG2a; 20 μg IP days 3 and 4, day 8) was 493 ± 187 µg/mL. The “IgG2a ± SD” value (IgG2a; 20 μg IP days 3 and 4, day 9) was 1170 ± 285 µg/mL, the “IgG2a ± SD” value (IgG2a; 20 μg IP days 3 and 4, day 11) was 2133 ± 862 µg/mL and the “IgG2a ± SD” value (IgG2a; [7]) was 29 ± 9 µg/mL. The “IgG2a ± SD” value (IgG2a; 40 μg IP days 3 and 4, day 7) was 81 ± 12 µg/mL, the “IgG2a ± SD” value (IgG2a; 40 μg IP days 3 and 4, day 8) was 433 ± 314 µg/mL and the “IgG2a ± SD” value (IgG2a; 40 μg IP days 3 and 4, day 9) was 1177 ± 383 µg/mL. For the same compound, the “IgG2a ± SD” value (IgG2a; 40 μg IP days 3 and 4, day 11) was 1667 ± 675 µg/mL, the “IgG2a ± SD” value (IgG2a; [8]) was 23 ± 1 µg/mL and the TD50 at 8 h [1] was 0.173 mg/kg. For the same compound, the “ED50 IgE Inhibition” value (IgE) was 1.0 μg/mouse/TID.
For CCCCC(C)(O)C/C=C/[C@H]1[C@H](O)CC(=O)[C@@H]1CCC1CC1CCC(=O)OC (relative stereo) [(±) methyl 2-[2-[3R-3α-hydroxy-2β-(4-hydroxy-4-methyl-1E-octenyl)-5-oxo-1α-cyclopentyl]ethyl]cyclopropanepropanoate], the “inhibition of IgG3” value (IgG3; 20 μg days 3 and 4, Example 23) was “not IgG1, IgG2a or IgG3”, the “IgG3 ± SD” value (IgG3; [9]) was 901 ± 213 µg/mL and the “inhibition of IgG2a” value (IgG2a; 20 μg days 3 and 4, Example 23) was “not IgG1, IgG2a or IgG3”. For the same compound, the “IgG2a ±” value (IgG2a; 20 μg days 3 and 4) was 840 ± 484 µg/mL and the “ED50 IgE Inhibition” value (IgE) was 1.0 μg/mouse/TID.
For CCCCC(C)(O)C/C=C/[C@H]1[C@H](O)CC(=O)[C@@H]1CC1CC1CCCC(=O)OC (relative stereo) [(±) methyl 2-[2-[3R-3α-hydroxy-2β-(4-hydroxy-4-methyl-1E-octenyl)-5-oxo-1α-cyclopentyl]methyl]cyclopropanebutanoate], the “inhibition of IgG3” value (IgG3; 20 μg days 3 and 4, Example 23) was “not IgG1, IgG2a or IgG3”, the “IgG3 ± SD” value (IgG3; [9]) was 520 ± 39 µg/mL and the “inhibition of IgG2a” value (IgG2a; 20 μg days 3 and 4, Example 23) was “not IgG1, IgG2a or IgG3”. The “IgG2a ±” value (IgG2a; 20 μg days 3 and 4) was 834 ± 235 µg/mL and the “ED50 IgE Inhibition” value (IgE) was 9.0 μg/mouse/TID.
With CCCCC(C)(O)C/C=C/[C@H]1[C@H](O)CC(=O)[C@@H]1C/C=C\C=CCC(=O)OC (relative stereo) [(±) methyl 11α,16-dihydroxy-16-methyl-9-oxoprosta-3,5Z,13-trien-1-oate] the “inhibition of IgG3” value (IgG3; 20 μg days 3 and 4, Example 25) was “not IgG1, IgG2a, IgG3 and IgM”, the “IgG3 ± SD” value (IgG3; [2]) was 1709 ± 429 µg/mL and the “inhibition of IgG2a” value (IgG2a; 20 μg days 3 and 4, Example 25) was “not IgG1, IgG2a, IgG3 and IgM”. The “IgG2a ± SD” value (IgG2a; [3]) was 1202 ± 338 µg/mL, the TD50 at 8 h [1] was 0.57 mg/kg and the “ED50 IgE Inhibition” value (IgE) was 6.5 μg/mouse/TID.
